Several values for one entry are separate records, joined by “and”; a condition that tells them apart may be missing. Identical values can stand only once.
Tests used:
HepG2 cells = experiment: Antiproliferation assay (CCK-8), HepG2; assay type: cell-based; settings: Homo sapiens, HepG2; CCK-8, 72 h; read-out: IC50 antiproliferative HepG2
Description: (§1) The antiproliferative activities of the compounds against HepG2, MDA-MB-231, and HCT116 cell lines were tested by the standard CCK-8 method. Cell viability was measured by Cell Counting Kit-8 (Meilunbio, Dalian, China) according to the manufacturer’s instructions. Briefly, cancer cells were seeded into 96-well plates at a density of 2.5 × 10^3 cells per well. […] Subsequently, CCK-8 solution was added into each well and incubated for an additional 2 h. The absorbance at 450 nm was determined in each well using the BioTek Synergy HTX microplate reader. The assay was performed in triplicate, and each experiment was repeated three times.

MDA-MB-231 cells = experiment: Antiproliferation assay (CCK-8), MDA-MB-231; assay type: cell-based; settings: Homo sapiens, MDA-MB-231; CCK-8, 72 h; read-out: IC50 antiproliferative MDA-MB0231
Description: as §1

HCT116 cells = experiment: Antiproliferation assay (CCK-8), HCT116; assay type: cell-based; settings: Homo sapiens, HCT-116; CCK-8, 72 h; read-out: IC50 antiproliferative HCT116
Description: as §1, with “Cell” for “The antiproliferative activities of the compounds against HepG2, MDA-MB-231, and HCT116 cell lines were tested by the standard CCK-8 method. Cell”

c-Met kinase = c-Met kinase (Homo sapiens, UniProt P08581); experiment: c-Met kinase inhibitory activity assay (in vitro); assay type: biochemical; settings: ATP 30 uM, enzyme 0.25 nM; means from three independent experiments
Description: (§2) The in vitro inhibition assays of all final compounds against Mer and c-Met kinase were performed by Shanghai Bioduro Biological Technology Co., Ltd. (Shanghai, China). We prepared 1× buffer: HEPES 50 mM, MgCl2 10 mM, EGTA 1 mM, NP-40 0.0001%, DTT 2 mM; compound dilution with DMSO. For test compounds, a 100 × final concentration solution was prepared. About 100 nL compounds were transferred to a 384-well plate by using the automated liquid handler. The final DMSO% in the assay is 1%. Enzyme stock solutions were diluted with 1× assay buffer to a concentration of 0.5 nM to make a 2× working solution. […] Substrate solutions were diluted with 1× assay buffer. About 5 μL mix or buffer was added manually to the assay plate (ATP final 30 uM and TK-Sub-Biotin final 2 uM) using a multichannel pipette, spun down at 1000 rpm, and centrifuged for 30 s. After incubating at 30 °C for 60 min, 10 μL of detection solution was added to each well of the assay, mixed briefly with a centrifuge, and equilibrated for another 60 min. The luminescence was recorded using Envision.

Mer kinase = biological target: T1, Mer kinase (Homo sapiens, UniProt Q12866); experiment: Mer kinase inhibitory activity assay (in vitro); assay type: biochemical; settings: ATP 30 uM, enzyme 0.25 nM; means from three independent experiments
T1 sequence (Q12866 21-999): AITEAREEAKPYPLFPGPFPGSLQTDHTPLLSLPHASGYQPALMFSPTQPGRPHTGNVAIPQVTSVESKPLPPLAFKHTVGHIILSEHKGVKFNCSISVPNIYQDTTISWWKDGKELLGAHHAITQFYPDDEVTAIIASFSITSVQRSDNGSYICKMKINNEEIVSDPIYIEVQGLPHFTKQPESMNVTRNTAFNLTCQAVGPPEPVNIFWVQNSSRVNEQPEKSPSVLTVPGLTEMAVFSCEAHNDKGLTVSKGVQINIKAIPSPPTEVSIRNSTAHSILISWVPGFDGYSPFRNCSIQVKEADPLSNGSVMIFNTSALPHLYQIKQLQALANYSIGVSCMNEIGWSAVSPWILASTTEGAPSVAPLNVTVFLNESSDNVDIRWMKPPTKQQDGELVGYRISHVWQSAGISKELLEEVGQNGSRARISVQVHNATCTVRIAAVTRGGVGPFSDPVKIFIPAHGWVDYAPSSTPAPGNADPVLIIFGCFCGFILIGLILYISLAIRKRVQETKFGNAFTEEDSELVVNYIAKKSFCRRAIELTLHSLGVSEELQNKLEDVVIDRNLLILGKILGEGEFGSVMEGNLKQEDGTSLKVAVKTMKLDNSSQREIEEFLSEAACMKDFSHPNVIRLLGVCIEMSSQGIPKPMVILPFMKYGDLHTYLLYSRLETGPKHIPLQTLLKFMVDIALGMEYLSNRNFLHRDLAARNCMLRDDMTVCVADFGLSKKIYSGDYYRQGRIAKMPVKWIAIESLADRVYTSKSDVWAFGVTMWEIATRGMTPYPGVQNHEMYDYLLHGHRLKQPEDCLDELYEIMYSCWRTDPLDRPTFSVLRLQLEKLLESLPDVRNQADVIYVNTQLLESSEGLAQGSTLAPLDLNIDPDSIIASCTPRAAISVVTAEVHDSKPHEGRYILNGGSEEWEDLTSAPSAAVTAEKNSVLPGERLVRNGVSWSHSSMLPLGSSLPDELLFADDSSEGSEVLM
Description: as §2

[1] = Liver microsome stability assay; assay type: in vitro ADME; settings: pH 7.4, human liver microsomes 0.2 mg/mL, test compound 1 μM, NADPH; for microsomal CLint at 1 μM: read-out: CL Human; for half-life at 1 μM: read-out: T1/2 Human
Description: Stock solution (10 mM) of each of test compound was prepared in DMSO. The stock solution for each compound was then diluted into 200 μM with acetonitrile. Incubation mixtures were prepared in a total volume of 200 μL with final component concentrations as follows: 0.1 M PBS (pH 7.4), NADPH (2 mM), liver microsomes (0.2 mg/mL), and test compound (1 μM) or positive control. NAPDH was added after a 5 min preincubation of all other components at 37 °C, then pipette-mixed to achieve a homogenous suspension and immediately transferred 20 μL of the incubate as a 0 min sample to wells in a “Quenching” plate, followed by pipette-mixing. At 5, 15, 30, and 60 min, we pipette-mixed the incubate and serially transferred samples of 20 μL of the incubate per time point to wells in a separate “Quenching” plate, followed by pipette-mixing. In “Quenching” plates, 200 μL of acetonitrile was added with IS. The 96 wells were centrifuged at 4000 rpm for 10 min. Then 50 μL of supernatant was mixed with 50 μL of ddH2O and injected into the LC-MS/MS system for analysis.

Chain of c-Met kinase (P08581 25-1390): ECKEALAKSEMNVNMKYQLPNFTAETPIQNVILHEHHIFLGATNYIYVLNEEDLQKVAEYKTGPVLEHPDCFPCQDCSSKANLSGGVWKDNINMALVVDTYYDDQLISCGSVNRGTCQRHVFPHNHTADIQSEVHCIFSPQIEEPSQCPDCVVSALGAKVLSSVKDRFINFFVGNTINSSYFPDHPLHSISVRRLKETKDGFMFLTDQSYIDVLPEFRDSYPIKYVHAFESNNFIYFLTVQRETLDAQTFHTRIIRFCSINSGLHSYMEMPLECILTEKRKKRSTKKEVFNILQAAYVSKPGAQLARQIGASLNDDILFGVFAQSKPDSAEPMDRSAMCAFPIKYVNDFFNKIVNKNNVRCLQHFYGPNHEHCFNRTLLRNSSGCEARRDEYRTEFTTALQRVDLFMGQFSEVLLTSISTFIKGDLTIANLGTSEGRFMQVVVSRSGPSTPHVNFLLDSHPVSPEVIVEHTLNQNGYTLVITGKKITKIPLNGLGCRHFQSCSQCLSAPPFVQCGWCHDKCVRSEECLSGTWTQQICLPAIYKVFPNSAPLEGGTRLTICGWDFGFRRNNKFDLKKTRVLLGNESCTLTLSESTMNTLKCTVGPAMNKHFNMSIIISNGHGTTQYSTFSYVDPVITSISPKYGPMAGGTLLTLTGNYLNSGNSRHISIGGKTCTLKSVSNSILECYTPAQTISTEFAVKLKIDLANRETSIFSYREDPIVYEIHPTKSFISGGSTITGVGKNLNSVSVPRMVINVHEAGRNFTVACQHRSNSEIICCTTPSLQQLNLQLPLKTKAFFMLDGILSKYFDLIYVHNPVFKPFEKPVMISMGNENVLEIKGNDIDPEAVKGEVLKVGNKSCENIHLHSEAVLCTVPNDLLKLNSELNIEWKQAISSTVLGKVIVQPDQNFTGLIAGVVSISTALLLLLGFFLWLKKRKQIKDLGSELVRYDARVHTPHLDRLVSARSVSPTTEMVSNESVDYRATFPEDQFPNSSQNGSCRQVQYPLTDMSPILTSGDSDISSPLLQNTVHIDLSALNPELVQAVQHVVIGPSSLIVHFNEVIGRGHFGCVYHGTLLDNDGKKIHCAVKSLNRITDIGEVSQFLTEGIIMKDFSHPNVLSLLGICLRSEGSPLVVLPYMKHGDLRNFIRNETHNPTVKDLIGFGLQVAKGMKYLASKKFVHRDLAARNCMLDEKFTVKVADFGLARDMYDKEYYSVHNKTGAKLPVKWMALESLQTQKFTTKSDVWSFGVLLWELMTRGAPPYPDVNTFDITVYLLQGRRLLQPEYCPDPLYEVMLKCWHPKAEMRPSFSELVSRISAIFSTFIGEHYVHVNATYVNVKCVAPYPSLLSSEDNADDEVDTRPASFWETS

Compound | IC50 (c-Met kinase) | IC50 (Mer kinase) | also measured
COc1cc2nccc(Oc3ccc(NC(=O)C4(C(=O)Nc5ccc(F)cc5)CC4)cc3)c2cc1OC [Cabozantinib, reference compound] |  |  | IC50 (HepG2 cells): 1720 nM; IC50 (MDA-MB-231 cells): 29000 nM; IC50 (HCT116 cells): 7820 nM
Cc1c(C(=O)Nc2ccc(Oc3ccnc(Nc4ccc(C(=O)NCCCN5CCOCC5)cc4)n3)cc2)c(=O)n(-c2ccccc2)n1C [Compound 14a] | 151 ± 22.6 nM | 8.1 nM and 7.9 nM | 
Cc1c(C(=O)Nc2ccc(Oc3ccnc(Nc4ccc(NC(=O)CN5CCN(C)CC5)cc4)n3)cc2)c(=O)n(-c2ccccc2)n1C [Compound 14b] | 179 ± 25.2 nM | 9.6 nM and 9.4 nM | 
Cc1c(C(=O)Nc2ccc(Oc3ccnc(Nc4ccc(NS(=O)(=O)c5ccccc5)cc4)n3)cc2)c(=O)n(-c2ccccc2)n1C [Compound 14c] | > 1000 nM | 166 ± 21.6 nM | 
Cc1c(C(=O)Nc2ccc(Oc3ccnc(Nc4cccc(NC(=O)CN5CCN(C)CC5)c4)n3)cc2)c(=O)n(-c2ccccc2)n1C [Compound 14d] | 144 ± 17.3 nM | 24.2 ± 2.6 nM | 
Cc1c(C(=O)Nc2ccc(Oc3ccnc(Nc4cccc(C(=O)NCCCN5CCOCC5)c4)n3)cc2)c(=O)n(-c2ccccc2)n1C [Compound 14e] | 321 ± 25.6 nM | 40.3 ± 3.6 nM | 
Cc1c(C(=O)Nc2ccc(Oc3ccnc(Nc4ccc(NC(=O)CN5CCN(C)CC5)c(C#N)c4)n3)cc2)c(=O)n(-c2ccccc2)n1C [Compound 14g] | 89.4 ± 12.6 nM | 7.1 ± 0.9 nM | 
Cc1c(C(=O)Nc2ccc(Oc3ccnc(Nc4ccc(NC(=O)CN5CCN(C)CC5)c(F)c4)n3)cc2)c(=O)n(-c2ccccc2)n1C [Compound 14h] | 74.9 ± 12.2 nM | 12.5 ± 2 nM | 
Cc1c(C(=O)Nc2ccc(Oc3ccnc(Nc4ccc(N(C)C(=O)CN5CCN(C)CC5)cc4)n3)cc2)c(=O)n(-c2ccccc2)n1C [Compound 14i] | 224 ± 24.6 nM | 97.1 ± 12.7 nM | 
CC(=O)N1CCN(c2ccc(Nc3nccc(Oc4ccc(NC(=O)C5(C(=O)Nc6ccc(F)cc6)CC5)cc4)n3)cc2)CC1 [Compound 18a] | 15.4 ± 1.4 nM | 85.3 ± 6.8 nM | 
O=C(Nc1ccc(F)cc1)C1(C(=O)Nc2ccc(Oc3ccnc(Nc4ccc(NS(=O)(=O)c5ccccc5)cc4)n3)cc2)CC1 [Compound 18b] | 941 ± 65.9 nM | > 10000 nM | 
O=C(NCCCN1CCOCC1)c1ccc(Nc2nccc(Oc3ccc(NC(=O)C4(C(=O)Nc5ccc(F)cc5)CC4)cc3)n2)cc1 [Compound 18d] | 52.7 ± 8.5 nM | 42.4 ± 5.8 nM | 
COCCNc1ccc(Nc2nccc(Oc3ccc(NC(=O)C4(C(=O)Nc5ccc(F)cc5)CC4)cc3)n2)cc1 [Compound 18e] | 77.3 ± 13.1 nM | 159 ± 17.4 nM | 
O=C(Nc1ccc(F)cc1)C1(C(=O)Nc2ccc(Oc3ccnc(Nc4ccc(CCC(O)c5ccccc5)cc4)n3)cc2)CC1 (stereo not drawn) [Compound 18f] | > 1000 nM | 463 ± 55.4 nM | 
CCN1CCN(CC(=O)Nc2ccc(Nc3nccc(Oc4ccc(NC(=O)C5(C(=O)Nc6ccc(F)cc6)CC5)cc4)n3)cc2)CC1 [Compound 18g] | 48.7 ± 8.7 nM | 20.3 ± 3.2 nM | 
CC(C)N1CCN(CC(=O)Nc2ccc(Nc3nccc(Oc4ccc(NC(=O)C5(C(=O)Nc6ccc(F)cc6)CC5)cc4)n3)cc2)CC1 [Compound 18h] | 42.6 ± 8.1 nM | 12.4 ± 1.9 nM | 
O=C(CN1CCN(CC2CC2)CC1)Nc1ccc(Nc2nccc(Oc3ccc(NC(=O)C4(C(=O)Nc5ccc(F)cc5)CC4)cc3)n2)cc1 [Compound 18i] | 77.1 ± 15.2 nM | 30.9 ± 5.3 nM | 
CC(=O)N1CCN(CC(=O)Nc2ccc(Nc3nccc(Oc4ccc(NC(=O)C5(C(=O)Nc6ccc(F)cc6)CC5)cc4)n3)cc2)CC1 [Compound 18j] | 32.8 ± 5.8 nM | 57.5 ± 9.4 nM | 
CN1CCN(CC(=O)Nc2ccc(Nc3nccc(Oc4ccc(NC(=O)C5(C(=O)Nc6ccc(F)cc6)CC5)cc4)n3)cc2C#N)CC1 [Compound 18k] | 51.2 ± 8 nM | 10.2 ± 1.4 nM | 
CN1CCN(CC(=O)Nc2ccc(Nc3nccc(Oc4ccc(NC(=O)C5(C(=O)Nc6ccc(F)cc6)CC5)cc4)n3)cc2F)CC1 [Compound 18l] | 48.7 ± 8.2 nM | 18.3 ± 2.7 nM | microsomal CLint at 1 μM [1]: 360 µL/min/mg; half-life at 1 μM [1]: 9.6 min
CN1CCN(CC(=O)N(C)c2ccc(Nc3nccc(Oc4ccc(NC(=O)C5(C(=O)Nc6ccc(F)cc6)CC5)cc4)n3)cc2)CC1 [Compound 18m] | 74.4 ± 13.5 nM | 126 ± 17.8 nM | 
CC(C(=O)Nc1ccc(Nc2nccc(Oc3ccc(NC(=O)C4(C(=O)Nc5ccc(F)cc5)CC4)cc3)n2)cc1)N1CCN(C)CC1 (stereo not drawn) [Compound 18n] | 30.7 ± 4.8 nM | 31.6 ± 5.4 nM | microsomal CLint at 1 μM [1]: 290 µL/min/mg; half-life at 1 μM [1]: 11.9 min
CN1CCN(CC(=O)Nc2cccc(Nc3nccc(Oc4ccc(NC(=O)C5(C(=O)Nc6ccc(F)cc6)CC5)cc4)n3)c2)CC1 [Compound 18o] | 39.8 ± 6.6 nM | 24.8 ± 3.3 nM | microsomal CLint at 1 μM [1]: 400 µL/min/mg; half-life at 1 μM [1]: 8.6 min
C[C@]12CC[C@H]3[C@@H](CCC4=CC(=O)CC[C@@]43C)[C@@H]1CC[C@@H]2O [Testosterone, reference compound] |  |  | half-life at 1 μM [1]: 32.1 min
